This is an account of results in patent US7109229B2, “Methods and compounds for treating proliferative diseases” (Eli Lilly and Company, priority 2000, dated 2006).

Where a name gives a salt, the structure may show the parent alone.

Data set [1] concerns the target T1, Cyclin D1-cdk4 (Homo sapiens, UniProt P11802). Put plainly: Cyclin D1-cdk4 kinase activity with the Rb21 protein as substrate. Particulars: Table 1; Rb21 protein substrate; read-out: Rb21 IC50. Format: biochemical. As for the experimental part:
The compounds of Formula I were tested using in vitro. An important in vitro test is the ability of the compound to inhibit the activity of the CDK4 enzyme. This test is done using Rb^ING and/or Rb^21 substrates as described in the literature ([…]., et al, J. Biol. Chem. 273, 26506-26515 (1998)). […] The reaction was incubated at room temperature (about 74° F.) for 60 minutes, and then terminated by the addition of 100 ul of 25% trichloroacetic acid. Next, the reaction was filtered through a Millipore Multiscreen-FC Plate-Catalog number MAFC NOB 10, and the plate was washed 2 times with 320 ul each of 10% trichloroacetic acid, followed by the addition of 100 ul of scintillation fluid and quantitation on a Packard Instruments, Top Count, scintillation counter.

For data set [2], the target named is T1, Cyclin D1-cdk4. Put plainly: Cyclin D1-cdk4 kinase activity with the ING peptide as substrate. It counts as biochemical. Particulars: Table 1; ING peptide substrate; read-out: RbING IC50. As for the experimental part: The compounds of Formula I were tested using in vitro. An important in vitro test is the ability of the compound to inhibit the activity of the CDK4 enzyme. This test is done using Rb^ING and/or Rb^21 substrates as described in the literature (KONSTANTINIDIS, A. K., et al, J. Biol. Chem. 273, 26506–26515 (1998)). The test yields the micromolar concentration of the test compound, which produces a 50% inhibition of the CDK4 enzyme activity.
Assay of Cyclin D1-cdk4 Kinase Activity with the ING Peptide as Substrate.
The cyclin D1-cdk4 kinase activity of a compound was assayed by preparing a 100 ul reaction at the following concentrations: 35 mM Hepes pH 7.0, 10 mM MgCl2, 300 uM ATP, 200 uM ING peptide, 1.0 uCi of γ-^33P-ATP, 4.34 ug of cyclin D-cdk4 enzyme, 4% DMSO, and various concentrations of inhibitor. The reaction was incubated at room temperature (about 74° F.) for 60 minutes, and then terminated by the addition of 100 ul of 10% phosphoric acid. Next, the reaction was filtered through a Millipore Multiscreen-PH Plate—Catalog number MAPH NOB 10, and the plate was washed 2 times with 320 ul each of 0.5% phosphoric acid, followed by the addition of 100 ul of scintillation fluid and quantitation on a Packard Instruments, Top Count, scintillation counter.

The test system of another data set is protein kinase A. Conditions: background, literature; cited from earlier work.
The next data set relates to protein kinase C. Conditions: background, literature; cited from earlier work.

T1 sequence (P11802 whole entry): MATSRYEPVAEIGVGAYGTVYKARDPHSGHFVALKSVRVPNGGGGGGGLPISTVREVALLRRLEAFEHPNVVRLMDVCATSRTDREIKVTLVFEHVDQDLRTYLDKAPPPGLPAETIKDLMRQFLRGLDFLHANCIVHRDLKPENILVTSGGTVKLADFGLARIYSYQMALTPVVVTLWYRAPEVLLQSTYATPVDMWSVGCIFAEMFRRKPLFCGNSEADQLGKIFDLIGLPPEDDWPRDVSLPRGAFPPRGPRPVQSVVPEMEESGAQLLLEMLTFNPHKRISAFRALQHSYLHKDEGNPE
T1 sequence (P24385 whole entry partner): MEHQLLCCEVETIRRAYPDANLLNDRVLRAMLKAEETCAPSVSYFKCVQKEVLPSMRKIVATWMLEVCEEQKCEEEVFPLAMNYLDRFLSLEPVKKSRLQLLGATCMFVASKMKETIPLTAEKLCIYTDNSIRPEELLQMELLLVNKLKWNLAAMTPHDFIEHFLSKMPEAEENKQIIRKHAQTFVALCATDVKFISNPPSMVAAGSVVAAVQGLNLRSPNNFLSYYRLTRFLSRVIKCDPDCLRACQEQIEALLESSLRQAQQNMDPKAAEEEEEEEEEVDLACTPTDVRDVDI

In general, IC50 refers to the midpoint of a concentration-inhibition curve. Take `Cn1ccc2ccc3c4[nH]c5ccccc5c4c4c(c3c21)C(=O)NC4=O` [Example 2, 5-Methyl-7H,13H-indolo[6,7-a]-pyrrolo[3,4-c]-carbazole-6,8-dione]: the IC50 at Cyclin D1-cdk4 [1] amounted to 21.5 nM.

Regarding `COc1ccc2c3c4c(c5c(ccc6ccn(C)c65)c3n(CCCO)c2c1)C(=O)NC4=O` [Example 11, 13-(3-Hydroxy-propyl)-11-methoxy-5-methyl-5H,13H-indolo[6,7-a]pyrrolo[3,4-c]carbazole-6,8-dione], at Cyclin D1-cdk4 [1], the IC50 is 11.6 nM.

For `COc1ccc2c3c4c(c5c(ccc6ccn(C)c65)c3n(CCN3CCC(C(N)=O)CC3)c2c1)C(=O)NC4=O` [Example 36, 11-Methoxy-5-methyl-13-(1-ethyl-piperidine-4-carboxylic acid amide)-7H-indolo[6,7-a]pyrrolo[3,4-c]carbazole-6,8-dione], the IC50 at Cyclin D1-cdk4 [2] amounted to 82.4 nM; at Cyclin D1-cdk4 [1], 35.7 nM.

For `COc1ccc2c3c4c(c5c(ccc6ccn(C)c65)c3n(CCCNCCN(C)C)c2c1)C(=O)NC4=O` [Example 55, 11-Methoxy-5-methyl-13-(N,N-dimethyl-N′-propyl-ethane-1,2-diamine)-7H-indolo[6,7-a]pyrrolo[3,4-c]carbazole-6,8-dione], the IC50 on Cyclin D1-cdk4 [2] amounted to 42 nM; on Cyclin D1-cdk4 [1], 24.6 nM.

Consider `COc1ccc2c3c4c(c5c(ccc6ccn(C)c65)c3n(CCCNCCN(C)C)c2c1)C(=O)NC4=O` [Example 56, 11-Methoxy-5-methyl-13-(N,N-dimethyl-N′-propyl-ethane-1,2-diamine)-7H-indolo[6,7-a]pyrrolo[3,4-c]carbazole-6,8-dione dihydrochloride], for which the IC50 was found to be 99.2 nM on Cyclin D1-cdk4 [2] and 17.7 nM on Cyclin D1-cdk4 [1].

As to `COC(=O)[C@H](C)NCCCn1c2cc(OC)ccc2c2c3c(c4c(ccc5ccn(C)c54)c21)C(=O)NC3=O` [Example 59, (S)-(+)-11-Methoxy-5-methyl-13-(2-propylamino-propionic acid methyl ester)-7H-indolo[6,7-a]pyrrolo[3,4-c]carbazole-6,8-dione], the IC50 at Cyclin D1-cdk4 [2] was found to be 120 nM; at Cyclin D1-cdk4 [1] it was 45.1 nM.

Turning to `CN1CCN(CCc2cccc3c2[nH]c2c4ccc5ccn(C)c5c4c4c(c32)C(=O)NC4=O)CC1` [Example 68, 5-Methyl-12-(1-ethyl-4-methyl-piperazine)-7H,13H-indolo[6,7-a]pyrrolo[3,4-c]carbazole-6,8-dione], the results for the IC50 at Cyclin D1-cdk4 [2] and on Cyclin D1-cdk4 [1] were 22.6 nM and 10.9 nM, respectively.

In the case of `CN1CCN(CCCc2cccc3c2[nH]c2c4ccc5ccn(C)c5c4c4c(c32)C(=O)NC4=O)CC1` [Example 79, 12-(1-Methyl-4-propyl-piperazine)-5-methyl-7H,13H-indolo[6,7-a]pyrrolo[3,4-c]carbazole-6,8-dione], the IC50 amounted to 76.3 nM on Cyclin D1-cdk4 [2] and 34.7 nM on Cyclin D1-cdk4 [1].

Take `Cn1ccc2ccc3c4[nH]c5c(CCN6CCCCC6)cccc5c4c4c(c3c21)C(=O)NC4=O` [Example 83, 5-Methyl-12-(2-ethylpiperidine)-7H,13H-indolo[6,7-a]pyrrolo[3,4-c]carbazole-6,8-dione]: the values for the IC50 on Cyclin D1-cdk4 [2] and on Cyclin D1-cdk4 [1] were 78.2 nM and 10.9 nM, respectively.

Usually melting point stands for the temperature, or range, at which the solid turns liquid. With `Cc1ccc2c(c1)[nH]c1c3ccc4ccn(C)c4c3c3c(c21)C(=O)NC3=O` [Example 92, 11-Methyl-5-methyl-7H,13H-indolo[6,7-a]pyrrolo[3,4-c]6,8-dione], the melting point is 170 °C (dec.).

`Cn1ccc2ccc3c4[nH]c5ccc(C(F)(F)F)cc5c4c4c(c3c21)C(=O)NC4=O` [Example 94, 10-Trifluoromethyl-5-methyl-7H,13H-indolo[6,7-a]pyrrolo[3,4-c]6,8-dione]: the melting point is 100 to 110 °C (dec.).

On to `CN1CC[C@H](c2c(O)cc(O)c3c(=O)cc(-c4ccccc4Cl)oc23)[C@H](O)C1` [Flavopiridol], for which the “concentration at which protein kinase A is inhibited” value with protein kinase A is recorded as at least 10 μM/L. The “concentration at which protein kinase C is inhibited” value with protein kinase C was at least 10 μM/L.
